Seven molecules from ChEMBL document CHEMBL4000146, “Synthesis, antiplasmodial activity and mechanistic studies of pyrimidine-5-carbonitrile and quinoline hybrids” (Eur J Med Chem, 2015) can be followed below.

For series [1], the system named is Plasmodium falciparum. The series is described as follows: Resistance index, ratio of IC50 for chloroquine-resistant asexual intraerythrocytic stage of Plasmodium falciparum Dd2 to IC50 for chloroquine-sensitive asexual intraerythrocytic stage of Plasmodium falciparum NF54. It is filed as functional.
For series [2], the system named is L1210. The series is described as follows: Cytotoxicity against mouse L1210 cells assessed as inhibition of cell proliferation by Coulter counter analysis. It is filed as cell-based.
The subject of series [3] is CCRF-CEM. In words: Cytotoxicity against human CEM cells assessed as inhibition of cell proliferation by Coulter counter analysis. Type of series: cell-based.
Series [4] deals with HeLa. In words: Cytotoxicity against human HeLa cells assessed as inhibition of cell proliferation by Coulter counter analysis. Type of series: cell-based.
Series [5] can be described thus: Selectivity index, ratio of IC50 for human HeLa cells to IC50 for chloroquine-sensitive asexual intraerythrocytic stage of Plasmodium falciparum NF54. To be noted: read-out: Ratio IC50. Type of series: toxicity, cell-based.
Series [6] in a line: Selectivity index, ratio of IC50 for human HeLa cells to IC50 for chloroquine-resistant asexual intraerythrocytic stage of Plasmodium falciparum Dd2. It is filed as toxicity, cell-based. Conditions: read-out: Ratio IC50.
Series [7] in a line: Cytotoxicity against human HEL cells assessed as alteration of normal cell morphology by microscopic analysis. It is filed as cell-based.
The nature of series [8]: Cytotoxicity against human HEL cells assessed as inhibition of cell viability by colorimetric formazan-based MTS assay.
The nature of series [9]: Cytotoxicity against human HeLa cells assessed as alteration of normal cell morphology by microscopic analysis. It is filed as cell-based.
A short description of series [10]: Cytotoxicity against african green monkey Vero cells assessed as alteration of normal cell morphology by microscopic analysis. To be noted: chlorocebus sabaeus. It is filed as cell-based.
For series [11], the system named is Human alphaherpesvirus 1. Type of series: functional, cell-based. Conditions: Human alphaherpesvirus 1, KOS, HEL.
The subject of series [12] is Human alphaherpesvirus 2. Type of series: functional, cell-based. To be noted: Human alphaherpesvirus 2, G, HEL.
The test system of series [13] is Human alphaherpesvirus 1. Type of series: functional, cell-based. Conditions: Human alphaherpesvirus 1, KOS, HEL. The source holds these as a separate data set.
Series [14] concerns unidentified adenovirus. It is filed as functional, cell-based. To be noted: HEL.
Series [15] has as its system Coxsackievirus. It is filed as functional, cell-based. To be noted: B4, HeLa.
The test system of series [16] is Human orthopneumovirus. It is filed as functional, cell-based. To be noted: human respiratory syncytial virus, HeLa.
Series [17] deals with Human respirovirus 3. It is filed as functional. Conditions: Human respirovirus 3, Vero.
The test system of series [18] is Mammalian orthoreovirus 1. It is filed as functional. To be noted: Mammalian orthoreovirus 1, Vero.
Series [19] has as its system Sindbis virus. Type of series: functional. Conditions: Vero.
For series [20], the system named is Coxsackievirus. Type of series: functional. To be noted: B4, Vero.
Series [21] relates to Punta Toro virus. It is filed as functional. Conditions: Vero.
Series [22] concerns Human betaherpesvirus 5. It is filed as functional, cell-based. Conditions: Human betaherpesvirus 5, AD169, HEL.
The subject of series [23] is Human betaherpesvirus 5. Type of series: functional, cell-based. Conditions: Human betaherpesvirus 5, Davis, HEL.
Series [24] relates to Human alphaherpesvirus 3. It is filed as functional, cell-based. To be noted: Human alphaherpesvirus 3, strain Oka vaccine, HEL.
Series [25] relates to Human alphaherpesvirus 3. Type of series: functional, cell-based. Conditions: Human alphaherpesvirus 3, 07-1, HEL.
Series [26] in a line: Cytotoxicity against MDCK cells assessed as alteration of normal cell morphology by microscopic analysis. Type of series: cell-based, Canis lupus familiaris. Conditions: dog.
Series [27] can be described thus: Cytotoxicity against MDCK cells assessed as inhibition of cell viability by colorimetric formazan-based MTS assay. Conditions: dog. Set-up: species or system Canis lupus familiaris. (Formazan colour is commonly taken as a measure of viable cells.)
Series [28] relates to Plasmodium falciparum. In words: microbe, parasite or virus in culture. To be noted: NF54.
Series [29] relates to Plasmodium falciparum. In words: microbe, parasite or virus in culture. To be noted: Dd2.
Series [30] has as its system Vaccinia virus. In words: microbe, parasite or virus in culture. Conditions: Orthopoxvirus vaccinia, HEL.
Series [31] relates to Vesicular stomatitis virus. In words: microbe, parasite or virus in culture. Conditions: HEL.
The test system of series [32] is Vesicular stomatitis virus. The series is described as follows: microbe, parasite or virus in culture. To be noted: HeLa.
Series [33] has as its system Influenza A virus. In words: microbe, parasite or virus in culture. Conditions: H1N1, MDCK.
Series [34] deals with Influenza A virus. The series is described as follows: microbe, parasite or virus in culture. To be noted: H3N2, MDCK.
Series [35] concerns Influenza B virus. In words: microbe, parasite or virus in culture. Conditions: MDCK.

Usually IC50 stands for the midpoint of a concentration-inhibition curve. For orientation: CC50 means the concentration giving 50% cytotoxicity. As usually defined, the EC50 is the midpoint of the concentration-response curve.

With `N#Cc1c(NCCCCNc2ccnc3cc(Cl)ccc23)nc(N2CCOCC2)nc1-c1ccccc1`, the “Ratio IC50” value in series [1] is recorded as 1.95. The IC50 in [2] came out at 4.2 µM; in series [3], 4.6 µM; in [4], 17 µM; in series [28], 0.198 µM; in [29], 0.386 µM. In addition, the selectivity ratio in series [5] was 86.3; in series [6] it was 44. Further, the MCC in series [7], in series [9], in [10] and in [26] was 20 µM in each case. For the same molecule, the CC50 turned out to be 11.9 µM in series [8] and 10.9 µM in [27]. For the same molecule, the concentration for a half-maximal effect (EC50) in [11], in series [12], in [13], in series [14], in series [15] and in series [16] was greater than 4 µM throughout. Moreover, the EC50 in [17], in series [18], in series [19], in series [20], in [21] and in series [22] was greater than 4 µM in each case. For the same molecule, the EC50 in series [23], in series [24], in [25], in series [30], in series [31] and in series [32] was greater than 4 µM in each case. The half-maximal effective concentration (EC50) in [33], in series [34] and in series [35] was greater than 4 µM each time.
As for `C[C@H]1[C@H](OC(=O)CCC(=O)O)O[C@@H]2O[C@@]3(C)CC[C@H]4[C@H](C)CC[C@@H]1[C@@]24OO3` [ARTESUNATE], the “Ratio IC50” value in series [1] is given as 1.38. In addition, the IC50 was 0.0126 µM in series [28] and 0.0174 µM in [29].
As for `CSc1nc(NCCCCNc2ccnc3cc(Cl)ccc23)c(C#N)c(-c2ccc(C)cc2)n1`, the “Ratio IC50” value in series [1] is on record as 4.54. Also, the 50% inhibitory concentration (IC50) in series [2] came out at 4.3 µM; in series [3], 4.9 µM; in series [4], 5 µM; in [28], 0.119 µM; in [29], 0.543 µM. The selectivity ratio was 41.9 in series [5] and 9.2 in series [6]. Moreover, the MCC in [7] stood at 20 µM; in series [9], 100 µM; in series [10], 20 µM; in series [26], 20 µM. For the same molecule, the CC50 in [8] was 8.2 µM; in [27], 9.9 µM. Also, the 50% effective concentration (EC50) was greater than 4 µM in series [11]; greater than 4 µM in [12]; greater than 4 µM in series [13]; greater than 4 µM in series [14]; greater than 20 µM in [15]; greater than 20 µM in series [16]. The EC50 in [17], in series [18], in [19], in series [20], in [21] and in [22] was greater than 4 µM in each case. Further, the EC50 in series [23] is greater than 4 µM; in [24], greater than 4 µM; in series [25], greater than 4 µM; in series [30], greater than 4 µM; in series [31], greater than 4 µM; in series [32], greater than 20 µM. In addition, the EC50 in series [33], in series [34] and in series [35] was greater than 4 µM throughout.
For the molecule `CCN(CC)CCCC(C)Nc1ccnc2cc(Cl)ccc12` (stereo not drawn) [CHLOROQUINE], the figures for the IC50 in series [2], in series [3] and in series [4] were 15 µM, 23 µM and 18 µM, respectively. The MCC in series [7] was no less than 20 µM; in series [9], greater than 100 µM; in series [10] it was greater than 100 µM; in [26], 100 µM. Further, the CC50 in series [8] came to 58.5 µM; in series [27] it was 55.6 µM. The EC50 in series [11] is greater than 20 µM; in [12], greater than 20 µM; in series [13], greater than 20 µM; in series [14] it was greater than 20 µM; in [15] it was greater than 100 µM; in [16] it was greater than 100 µM. The EC50 is greater than 100 µM in series [17]; greater than 100 µM in series [18]; greater than 100 µM in series [19]; greater than 100 µM in series [20]; greater than 100 µM in [21]; greater than 20 µM in series [22]. In addition, the EC50 was greater than 4 µM in series [23]; greater than 4 µM in series [24]; greater than 4 µM in [25]; greater than 20 µM in [30]; greater than 20 µM in [31]; greater than 100 µM in [32]. In addition, the EC50 in [33], in [34] and in series [35] was greater than 20 µM in each case.
As to `CSc1nc(NCCCCNc2ccnc3cc(Cl)ccc23)c(C#N)c(-c2ccc([N+](=O)[O-])cc2)n1`, the “Ratio IC50” value in series [1] is on record as 12.13. For the same molecule, the IC50 in series [2] was 0.96 µM; in series [3], 0.76 µM; in [4], 0.89 µM; in series [28], 0.0438 µM; in series [29] it was 0.532 µM. Further, the selectivity ratio came to 20.3 in [5] and 1.6 in series [6]. Besides, the MCC in series [7], in series [9], in [10] and in [26] was 4 µM each time. The CC50 in series [8] turned out to be 1.7 µM; in series [27] it was 2 µM. In addition, the EC50 in [11], in series [12], in [13], in series [14], in series [15] and in [16] was greater than 0.8 µM throughout. Besides, the EC50 in [17], in [18], in series [19], in [20], in [21] and in series [22] was greater than 0.8 µM throughout. Moreover, the EC50 in [23], in [24], in [25], in series [30], in [31] and in series [32] was greater than 0.8 µM throughout. The EC50 in series [33], in [34] and in series [35] was greater than 0.8 µM in each case.
Consider `Nc1nc2c(ncn2COCCO)c(=O)[nH]1` [ACYCLOVIR], for which the MCC in series [7] fell in the range of 250 to 400 µM. The EC50 in series [11] worked out at 0.2 µM; in series [12] it was 0.1 µM; in series [13] it was 10 µM; in series [22], 1.24 µM; in series [23], 0.51 µM; in series [24], 1.69 µM. The results for the EC50 in [25], in [30] and in series [31] were 49.3 µM, greater than 250 µM and greater than 250 µM, respectively.
With `NC(=O)c1ncn([C@@H]2O[C@H](CO)[C@@H](O)[C@H]2O)n1` [RIBAVIRIN], the MCC in series [9] and in [10] was greater than 250 µM in each case. The EC50 was 10 µM in [16]; greater than 250 µM in series [18]; greater than 250 µM in [19]; 250 µM in series [20]; 7.2 to 9 µM in series [33]; 6.9 to 9 µM in series [34]. The EC50 in series [35] was in the range of 4 to 4.5 µM. The CC50 in series [27] came out at 100 µM.
